Experimental data reported in publication PMC8632988, “Inhibition of SYK and cSrc kinases can protect bone and cartilage in preclinical models of osteoarthritis and rheumatoid arthritis” (Scientific Reports, 2021).
Read-outs that look alike come from different tables or passages of the source.

Assays:
Test in all cases: Kinase selectivity profile assay
Assay type in all cases: biochemical
[1] = molecular target: T1, Aurora C (Homo sapiens, UniProt Q9UQB9); details: 500 nM; relative to DMSO; read-out: Residual enzymatic activity
T1 construct: purchased Reaction Biology Corporation
Protocol: (§1) The activity of MT-SYK-03 against cSrc kinase and selectivity profile towards other 341 kinases was determined at Reaction Biology Corporation (Malvern, PA, USA) using the standard kinase assay protocol. […]; unbound phosphate was removed by extensive washing of filters in phosphoric acid. Kinase activity data was expressed as the percent remaining kinase activity in test samples compared to vehicle (dimethyl sulfoxide) reactions based on the radioactivity of reaction products (see Table S2). Experiment was replicated twice.

[2] = molecular target: T2, CAMK4 (Homo sapiens, UniProt Q16566); details: 500 nM; relative to DMSO; read-out: Residual enzymatic activity
T2 construct: purchased Reaction Biology Corporation
Protocol: as §1

[3] = molecular target: T3, CDK3/cyclin E (Homo sapiens, UniProt Q00526); details: 500 nM; relative to DMSO; read-out: Residual enzymatic activity
T3 construct: purchased Reaction Biology Corporation
Protocol: as §1

[4] = molecular target: T4, CDK4/cyclin D3 (Homo sapiens, UniProt P11802); details: 500 nM; relative to DMSO; read-out: Residual enzymatic activity
T4 construct: purchased Reaction Biology Corporation
Protocol: as §1

[5] = molecular target: T5, CLK3 (Homo sapiens, UniProt P49761); details: 500 nM; relative to DMSO; read-out: Residual enzymatic activity
T5 construct: purchased Reaction Biology Corporation
Protocol: as §1

[6] = molecular target: T6, EPHA1 (Homo sapiens, UniProt P21709); details: for remaining activity at 0.5 µM: 500 nM, relative to DMSO, read-out: Residual enzymatic activity
T6 construct: purchased Reaction Biology Corporation (assay service)
T6 sequence (P21709 26-976): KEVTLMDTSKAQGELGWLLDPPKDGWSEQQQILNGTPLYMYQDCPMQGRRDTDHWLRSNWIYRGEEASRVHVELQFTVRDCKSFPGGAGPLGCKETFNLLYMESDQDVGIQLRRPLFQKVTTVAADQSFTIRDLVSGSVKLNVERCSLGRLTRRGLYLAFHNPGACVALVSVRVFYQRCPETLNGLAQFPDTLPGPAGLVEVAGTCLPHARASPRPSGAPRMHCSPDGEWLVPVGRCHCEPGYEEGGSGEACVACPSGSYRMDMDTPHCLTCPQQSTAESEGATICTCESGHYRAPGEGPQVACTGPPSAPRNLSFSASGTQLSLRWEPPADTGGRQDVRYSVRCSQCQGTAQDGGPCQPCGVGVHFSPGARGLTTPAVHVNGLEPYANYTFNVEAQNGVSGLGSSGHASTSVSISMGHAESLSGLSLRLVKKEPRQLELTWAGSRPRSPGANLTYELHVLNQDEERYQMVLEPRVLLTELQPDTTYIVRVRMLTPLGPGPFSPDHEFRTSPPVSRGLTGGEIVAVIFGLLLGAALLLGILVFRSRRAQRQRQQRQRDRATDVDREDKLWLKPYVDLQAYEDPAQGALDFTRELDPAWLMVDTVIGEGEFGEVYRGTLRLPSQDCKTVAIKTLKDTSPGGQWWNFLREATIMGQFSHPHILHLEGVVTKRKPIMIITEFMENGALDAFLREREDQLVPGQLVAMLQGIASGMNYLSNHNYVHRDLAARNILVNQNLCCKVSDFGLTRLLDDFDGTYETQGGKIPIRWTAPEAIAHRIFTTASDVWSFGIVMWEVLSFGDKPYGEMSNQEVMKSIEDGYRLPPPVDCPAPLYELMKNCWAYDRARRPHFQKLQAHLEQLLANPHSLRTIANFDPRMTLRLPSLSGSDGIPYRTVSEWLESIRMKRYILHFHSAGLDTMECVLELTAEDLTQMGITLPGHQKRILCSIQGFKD
Protocol: as §1

[7] = molecular target: T7, GRK2 (Homo sapiens, UniProt P25098); details: 500 nM; relative to DMSO; read-out: Residual enzymatic activity
T7 construct: purchased Reaction Biology Corporation
Protocol: as §1

[8] = molecular target: T8, HIPK1 (Homo sapiens, UniProt Q86Z02); details: 500 nM; relative to DMSO; read-out: Residual enzymatic activity
T8 construct: purchased Reaction Biology Corporation
Protocol: as §1

[9] = molecular target: T9, HIPK3 (Homo sapiens, UniProt Q9H422); details: 500 nM; relative to DMSO; read-out: Residual enzymatic activity
T9 construct: purchased Reaction Biology Corporation
Protocol: as §1

[10] = molecular target: T10, JAK3 (Homo sapiens, UniProt P52333); details: 500 nM; relative to DMSO; read-out: Residual enzymatic activity
T10 construct: purchased Reaction Biology Corporation
Protocol: as §1

[11] = molecular target: T11, LKB1 (Homo sapiens, UniProt Q15831); details: 500 nM; relative to DMSO; read-out: Residual enzymatic activity
T11 construct: purchased Reaction Biology Corporation
Protocol: as §1

[12] = molecular target: T12, LRRK2 (Homo sapiens, UniProt Q5S007); details: for remaining activity at 0.5 µM: 500 nM, relative to DMSO, read-out: Residual enzymatic activity
T12 construct: purchased Reaction Biology Corporation (assay service)
T12 sequence (Q5S007 whole entry): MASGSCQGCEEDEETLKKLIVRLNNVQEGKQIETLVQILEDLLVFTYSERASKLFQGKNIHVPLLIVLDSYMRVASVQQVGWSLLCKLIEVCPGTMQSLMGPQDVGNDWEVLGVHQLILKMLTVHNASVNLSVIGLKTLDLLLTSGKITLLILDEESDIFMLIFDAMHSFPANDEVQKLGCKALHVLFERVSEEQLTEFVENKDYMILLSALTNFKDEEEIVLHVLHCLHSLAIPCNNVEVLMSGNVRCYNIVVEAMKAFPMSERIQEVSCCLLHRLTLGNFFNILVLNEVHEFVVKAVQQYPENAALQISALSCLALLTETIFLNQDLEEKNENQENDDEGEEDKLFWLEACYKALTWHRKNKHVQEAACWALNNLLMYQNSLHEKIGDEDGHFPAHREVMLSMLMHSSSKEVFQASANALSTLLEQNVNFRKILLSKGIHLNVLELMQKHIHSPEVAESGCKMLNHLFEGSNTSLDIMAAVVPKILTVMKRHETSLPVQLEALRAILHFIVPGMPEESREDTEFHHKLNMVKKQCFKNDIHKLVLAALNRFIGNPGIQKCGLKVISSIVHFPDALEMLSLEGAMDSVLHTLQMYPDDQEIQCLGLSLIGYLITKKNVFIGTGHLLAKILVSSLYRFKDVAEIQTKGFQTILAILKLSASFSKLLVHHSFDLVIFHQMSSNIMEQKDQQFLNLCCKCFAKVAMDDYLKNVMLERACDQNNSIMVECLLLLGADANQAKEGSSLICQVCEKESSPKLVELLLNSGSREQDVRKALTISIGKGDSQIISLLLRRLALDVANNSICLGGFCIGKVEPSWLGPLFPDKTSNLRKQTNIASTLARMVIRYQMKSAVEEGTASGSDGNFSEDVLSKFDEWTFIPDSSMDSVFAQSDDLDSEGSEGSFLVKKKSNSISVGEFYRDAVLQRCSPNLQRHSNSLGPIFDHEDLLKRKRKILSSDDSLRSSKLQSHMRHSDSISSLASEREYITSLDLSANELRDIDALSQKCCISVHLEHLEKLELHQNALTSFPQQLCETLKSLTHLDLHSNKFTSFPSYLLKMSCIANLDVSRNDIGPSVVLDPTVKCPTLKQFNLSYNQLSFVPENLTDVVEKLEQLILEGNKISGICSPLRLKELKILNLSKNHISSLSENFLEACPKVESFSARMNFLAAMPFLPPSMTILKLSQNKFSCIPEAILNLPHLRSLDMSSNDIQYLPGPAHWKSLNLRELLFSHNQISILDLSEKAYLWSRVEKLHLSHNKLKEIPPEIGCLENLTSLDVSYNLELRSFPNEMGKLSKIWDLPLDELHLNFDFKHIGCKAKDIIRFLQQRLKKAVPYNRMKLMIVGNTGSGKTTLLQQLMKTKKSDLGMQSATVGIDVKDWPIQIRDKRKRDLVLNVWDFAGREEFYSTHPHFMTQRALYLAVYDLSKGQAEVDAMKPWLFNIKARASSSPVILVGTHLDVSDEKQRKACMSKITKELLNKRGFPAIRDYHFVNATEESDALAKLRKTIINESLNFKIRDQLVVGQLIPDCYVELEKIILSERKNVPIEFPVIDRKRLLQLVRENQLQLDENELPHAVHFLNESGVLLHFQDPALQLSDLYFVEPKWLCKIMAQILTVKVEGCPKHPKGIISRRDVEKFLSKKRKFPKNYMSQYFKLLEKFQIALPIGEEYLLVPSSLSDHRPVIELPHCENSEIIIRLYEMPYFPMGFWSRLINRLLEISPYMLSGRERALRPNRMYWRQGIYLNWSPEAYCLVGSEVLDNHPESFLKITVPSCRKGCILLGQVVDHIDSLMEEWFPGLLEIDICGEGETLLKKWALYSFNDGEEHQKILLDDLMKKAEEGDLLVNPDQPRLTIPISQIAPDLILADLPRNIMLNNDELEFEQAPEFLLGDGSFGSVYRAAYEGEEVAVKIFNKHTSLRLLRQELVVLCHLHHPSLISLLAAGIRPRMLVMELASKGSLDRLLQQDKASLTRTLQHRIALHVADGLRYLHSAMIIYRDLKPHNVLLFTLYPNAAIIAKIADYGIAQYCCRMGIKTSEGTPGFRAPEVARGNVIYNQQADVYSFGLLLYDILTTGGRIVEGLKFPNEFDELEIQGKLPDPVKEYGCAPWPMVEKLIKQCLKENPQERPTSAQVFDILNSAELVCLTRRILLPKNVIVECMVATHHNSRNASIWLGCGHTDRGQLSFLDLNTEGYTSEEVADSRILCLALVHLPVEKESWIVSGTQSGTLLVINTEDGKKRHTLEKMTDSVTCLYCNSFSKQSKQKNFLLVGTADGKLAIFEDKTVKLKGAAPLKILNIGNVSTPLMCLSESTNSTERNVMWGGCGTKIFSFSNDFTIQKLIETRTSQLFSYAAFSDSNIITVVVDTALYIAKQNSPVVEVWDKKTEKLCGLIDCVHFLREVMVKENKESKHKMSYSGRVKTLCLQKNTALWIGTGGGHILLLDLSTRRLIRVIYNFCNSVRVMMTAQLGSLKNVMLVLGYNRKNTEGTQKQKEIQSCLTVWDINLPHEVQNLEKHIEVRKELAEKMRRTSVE
Protocol: as §1

[13] = molecular target: T13, MLCK2/MYLK2 (Homo sapiens, UniProt Q9H1R3); details: 500 nM; relative to DMSO; read-out: Residual enzymatic activity
T13 construct: purchased Reaction Biology Corporation
Protocol: as §1

[14] = molecular target: T14, MRCKb/CDC42BPB (Homo sapiens, UniProt Q9Y5S2); details: read-out: Residual enzymatic activity
T14 construct: purchased Reaction Biology Corporation
T14 sequence (Q9Y5S2 whole entry): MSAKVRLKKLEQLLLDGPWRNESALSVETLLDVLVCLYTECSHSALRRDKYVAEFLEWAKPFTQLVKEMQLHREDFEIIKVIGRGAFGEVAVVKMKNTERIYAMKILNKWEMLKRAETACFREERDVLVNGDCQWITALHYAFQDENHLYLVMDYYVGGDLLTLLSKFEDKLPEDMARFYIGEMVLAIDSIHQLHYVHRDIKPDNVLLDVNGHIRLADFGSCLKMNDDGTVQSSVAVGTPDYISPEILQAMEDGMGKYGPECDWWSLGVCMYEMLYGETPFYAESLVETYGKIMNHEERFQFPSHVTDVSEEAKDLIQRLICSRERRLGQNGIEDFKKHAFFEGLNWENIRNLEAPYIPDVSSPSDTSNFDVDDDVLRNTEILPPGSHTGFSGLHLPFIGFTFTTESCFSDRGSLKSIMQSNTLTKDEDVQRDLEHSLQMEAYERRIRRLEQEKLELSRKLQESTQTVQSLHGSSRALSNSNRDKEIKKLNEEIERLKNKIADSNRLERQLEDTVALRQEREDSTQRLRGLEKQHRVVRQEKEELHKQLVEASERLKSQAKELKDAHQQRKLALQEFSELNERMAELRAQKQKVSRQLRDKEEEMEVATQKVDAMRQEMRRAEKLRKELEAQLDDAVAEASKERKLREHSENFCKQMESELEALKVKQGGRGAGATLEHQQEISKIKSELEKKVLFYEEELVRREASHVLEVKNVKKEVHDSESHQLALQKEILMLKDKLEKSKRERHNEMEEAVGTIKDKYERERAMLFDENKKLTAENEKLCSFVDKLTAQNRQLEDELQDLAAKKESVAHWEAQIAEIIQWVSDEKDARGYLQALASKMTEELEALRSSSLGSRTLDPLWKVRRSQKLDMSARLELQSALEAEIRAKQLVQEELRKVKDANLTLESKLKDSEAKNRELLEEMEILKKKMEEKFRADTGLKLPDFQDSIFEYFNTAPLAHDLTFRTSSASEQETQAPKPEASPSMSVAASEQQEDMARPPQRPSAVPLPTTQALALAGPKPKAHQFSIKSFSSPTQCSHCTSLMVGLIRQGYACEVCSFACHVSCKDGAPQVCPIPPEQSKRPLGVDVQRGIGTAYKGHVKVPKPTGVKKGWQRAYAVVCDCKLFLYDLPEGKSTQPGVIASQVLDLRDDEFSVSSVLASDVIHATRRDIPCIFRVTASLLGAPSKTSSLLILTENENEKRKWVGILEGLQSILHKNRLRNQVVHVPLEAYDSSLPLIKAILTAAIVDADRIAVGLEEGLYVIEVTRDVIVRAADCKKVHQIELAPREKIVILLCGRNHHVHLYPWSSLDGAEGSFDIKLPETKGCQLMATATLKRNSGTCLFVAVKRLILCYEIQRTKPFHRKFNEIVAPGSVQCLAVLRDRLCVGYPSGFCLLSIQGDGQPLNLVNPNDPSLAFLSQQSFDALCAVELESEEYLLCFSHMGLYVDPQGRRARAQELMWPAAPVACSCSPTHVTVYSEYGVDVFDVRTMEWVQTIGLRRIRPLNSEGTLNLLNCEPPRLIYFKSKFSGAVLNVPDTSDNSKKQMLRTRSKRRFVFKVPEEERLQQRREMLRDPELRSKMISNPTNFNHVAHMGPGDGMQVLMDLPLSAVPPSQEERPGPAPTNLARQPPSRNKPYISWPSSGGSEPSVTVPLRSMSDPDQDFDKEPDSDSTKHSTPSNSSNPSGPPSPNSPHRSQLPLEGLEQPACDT
Protocol: as §1

[15] = molecular target: T15, MST2/STK3 (Homo sapiens, UniProt Q13188); details: 500 nM; relative to DMSO; read-out: Residual enzymatic activity
T15 construct: purchased Reaction Biology Corporation
Protocol: as §1

[16] = molecular target: T16, P38d/MAPK13 (Homo sapiens, UniProt O15264); details: 500 nM; relative to DMSO; read-out: Residual enzymatic activity
T16 construct: purchased Reaction Biology Corporation
Protocol: as §1

[17] = molecular target: T17, P38g (Homo sapiens, UniProt P53778); details: 500 nM; relative to DMSO; read-out: Residual enzymatic activity
T17 construct: purchased Reaction Biology Corporation
T17 sequence (P53778 whole entry): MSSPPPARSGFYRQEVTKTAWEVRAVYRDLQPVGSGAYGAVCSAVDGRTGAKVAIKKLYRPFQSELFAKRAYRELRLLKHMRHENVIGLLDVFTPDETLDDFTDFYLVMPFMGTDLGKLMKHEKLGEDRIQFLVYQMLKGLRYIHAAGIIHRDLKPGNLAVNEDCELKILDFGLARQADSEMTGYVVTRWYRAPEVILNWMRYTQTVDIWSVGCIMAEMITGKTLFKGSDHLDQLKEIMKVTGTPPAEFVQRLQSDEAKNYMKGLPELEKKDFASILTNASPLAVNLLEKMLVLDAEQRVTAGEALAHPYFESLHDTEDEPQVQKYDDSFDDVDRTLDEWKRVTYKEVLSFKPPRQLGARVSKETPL
Protocol: as §1

[18] = molecular target: T18, PAK4 (Homo sapiens, UniProt O96013); details: 500 nM; relative to DMSO; read-out: Residual enzymatic activity
T18 construct: purchased Reaction Biology Corporation
Protocol: as §1

[19] = molecular target: T19, PIM3 (Homo sapiens, UniProt Q86V86); details: 500 nM; relative to DMSO; read-out: Residual enzymatic activity
T19 construct: purchased Reaction Biology Corporation
Protocol: as §1

[20] = molecular target: T20, PKA (Homo sapiens, UniProt P17612); details: 500 nM, relative to DMSO; for remaining activity at 0.5 µM: read-out: Residual enzymatic activity
T20 construct: purchased Reaction Biology Corporation
Protocol: as §1

[21] = molecular target: T21, PKCg (Homo sapiens, UniProt P05129); details: 500 nM; relative to DMSO; read-out: Residual enzymatic activity
T21 construct: purchased Reaction Biology Corporation
Protocol: as §1

[22] = molecular target: T22, PKCiota (Homo sapiens, UniProt P41743); details: 500 nM; relative to DMSO; read-out: Residual enzymatic activity
T22 construct: purchased Reaction Biology Corporation
Protocol: as §1

[23] = molecular target: T23, RSK3 (Homo sapiens, UniProt Q15349); details: 500 nM; relative to DMSO; read-out: Residual enzymatic activity
T23 construct: purchased Reaction Biology Corporation
Protocol: as §1

[24] = molecular target: T24, SRMS (Homo sapiens, UniProt Q9H3Y6); details: 500 nM; relative to DMSO; read-out: Residual enzymatic activity
T24 construct: purchased Reaction Biology Corporation
Protocol: as §1

[25] = molecular target: T25, TNK1 (Homo sapiens, UniProt Q13470); details: 500 nM; relative to DMSO; read-out: Residual enzymatic activity
T25 construct: purchased Reaction Biology Corporation
Protocol: as §1

[26] = molecular target: T26, WNK1 (Homo sapiens, UniProt Q9H4A3); details: 500 nM; relative to DMSO; read-out: Residual enzymatic activity
T26 construct: purchased Reaction Biology Corporation
Protocol: as §1

[27] = molecular target: T27, YES/YES1 (Homo sapiens, UniProt P07947); details: for remaining activity at 0.5 µM: 500 nM, relative to DMSO, read-out: Residual enzymatic activity
T27 construct: purchased Reaction Biology Corporation (Malvern, PA, USA)
T27 sequence (P07947 whole entry): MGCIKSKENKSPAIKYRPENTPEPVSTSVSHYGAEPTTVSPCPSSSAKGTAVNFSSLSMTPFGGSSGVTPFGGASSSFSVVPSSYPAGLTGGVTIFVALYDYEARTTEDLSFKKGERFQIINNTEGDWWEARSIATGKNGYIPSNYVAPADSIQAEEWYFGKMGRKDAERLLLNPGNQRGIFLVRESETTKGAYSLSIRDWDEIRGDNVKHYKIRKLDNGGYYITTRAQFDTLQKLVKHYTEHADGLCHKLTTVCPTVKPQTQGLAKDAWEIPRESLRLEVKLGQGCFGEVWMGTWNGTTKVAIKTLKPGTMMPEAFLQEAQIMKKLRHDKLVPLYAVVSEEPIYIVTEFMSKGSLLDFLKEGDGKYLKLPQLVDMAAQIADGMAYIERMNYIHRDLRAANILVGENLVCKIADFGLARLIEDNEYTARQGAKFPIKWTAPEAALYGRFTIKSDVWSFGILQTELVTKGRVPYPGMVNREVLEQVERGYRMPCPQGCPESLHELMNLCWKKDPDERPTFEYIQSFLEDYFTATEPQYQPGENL
Protocol: as §1

[28] = 10-dose mode, threefold serial dilution from 10 μM

COc1cc(Nc2ncnc(Nc3cc4c(cn3)NC(=O)C(C)(C)O4)n2)cc(OC)c1OC [MT-SYK-03]
remaining activity at 0.5 µM [1]: 89.2%
remaining activity at 0.5 µM [2]: 111%
remaining activity at 0.5 µM [3]: 99%
remaining activity at 0.5 µM [4]: 100%
remaining activity at 0.5 µM [5]: 103%
remaining activity at 0.5 µM [6]: 48.3%
IC50 [6, 28]: 457 nM
remaining activity at 0.5 µM [7]: 101%
remaining activity at 0.5 µM [8]: 97.4%
remaining activity at 0.5 µM [9]: 110%
remaining activity at 0.5 µM [10]: 74.7%
remaining activity at 0.5 µM [11]: 101%
remaining activity at 0.5 µM [12]: 48%
IC50 [12, 28]: 206 nM
remaining activity at 0.5 µM [13]: 105%
remaining activity at 0.5 µM ([14]; 500 nM, relative to DMSO): 103%
remaining activity at 0.5 µM [15]: 105%
remaining activity at 0.5 µM [16]: 119%
remaining activity at 0.5 µM [17]: 101%
remaining activity at 0.5 µM [18]: 92.1%
remaining activity at 0.5 µM [19]: 98.8%
Residual enzymatic activity [20]: did not inhibit any
remaining activity at 0.5 µM [20]: 96.4%
remaining activity at 0.5 µM [21]: 103%
remaining activity at 0.5 µM [22]: 102%
remaining activity at 0.5 µM [23]: 91.6%
remaining activity at 0.5 µM [24]: 99.7%
remaining activity at 0.5 µM [25]: 44.7%
remaining activity at 0.5 µM [26]: 106%
remaining activity at 0.5 µM [27]: 11.6%
IC50 [27, 28]: 3.5 nM
inhibition at 0.5 µM ([27]; read-out: Inhibition at 500 nM): > 90%

COc1cc(Nc2ncc(F)c(Nc3ccc4c(n3)NC(=O)C(C)(C)O4)n2)cc(OC)c1OC [R406, reference compound]
remaining activity at 0.5 µM [1]: 42.1%
remaining activity at 0.5 µM [2]: 120%
remaining activity at 0.5 µM [3]: 90.3%
remaining activity at 0.5 µM [4]: 99.6%
remaining activity at 0.5 µM [5]: 89.4%
remaining activity at 0.5 µM [6]: 25.4%
remaining activity at 0.5 µM [7]: 97.2%
remaining activity at 0.5 µM [8]: 90.8%
remaining activity at 0.5 µM [9]: 96.4%
remaining activity at 0.5 µM [10]: 10.4%
remaining activity at 0.5 µM [11]: 69.3%
remaining activity at 0.5 µM [12]: 5.5%
remaining activity at 0.5 µM [13]: 89.2%
remaining activity at 0.5 µM [14]: 105%
remaining activity at 0.5 µM [15]: 97.9%
remaining activity at 0.5 µM [16]: 84.7%
remaining activity at 0.5 µM [17]: 90.5%
remaining activity at 0.5 µM [18]: 53.9%
remaining activity at 0.5 µM [19]: 82.8%
remaining activity at 0.5 µM [20]: 50.8%
remaining activity at 0.5 µM [21]: 63.6%
remaining activity at 0.5 µM [22]: 103%
remaining activity at 0.5 µM [23]: 52%
remaining activity at 0.5 µM [24]: 101%
remaining activity at 0.5 µM [25]: 9.6%
remaining activity at 0.5 µM [26]: 103%
remaining activity at 0.5 µM [27]: 10.1%
